Data: ChEMBL document CHEMBL1201862, “PubChem BioAssay data set” (2004)
Activity calls are given as the source filed them.

Assays:
Format in all cases: functional
[1] = target: BDNF/NT-3 growth factors receptor (Homo sapiens, UniProt Q16620);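 further: NTRK2 measured as one member of a broad kinome-wide kinase profiling panel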
[2] = target: Vascular endothelial growth factor receptor 2 (Homo sapiens, UniProt P35968)
[3] = target: Vascular endothelial growth factor receptor 1 (Homo sapiens, UniProt P17948);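 further: measured within a kinome-wide profiling panel, FLT1 as the panel member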
[4] = target: Leukocyte tyrosine kinase receptor (Homo sapiens, UniProt P29376); experiment: Navigating the Kinome. Panel member name: LTK
[5] = target: Dual specificity protein kinase CLK2 (Homo sapiens, UniProt P49760)
Chain of Dual specificity protein kinase CLK2 (P49760 whole entry): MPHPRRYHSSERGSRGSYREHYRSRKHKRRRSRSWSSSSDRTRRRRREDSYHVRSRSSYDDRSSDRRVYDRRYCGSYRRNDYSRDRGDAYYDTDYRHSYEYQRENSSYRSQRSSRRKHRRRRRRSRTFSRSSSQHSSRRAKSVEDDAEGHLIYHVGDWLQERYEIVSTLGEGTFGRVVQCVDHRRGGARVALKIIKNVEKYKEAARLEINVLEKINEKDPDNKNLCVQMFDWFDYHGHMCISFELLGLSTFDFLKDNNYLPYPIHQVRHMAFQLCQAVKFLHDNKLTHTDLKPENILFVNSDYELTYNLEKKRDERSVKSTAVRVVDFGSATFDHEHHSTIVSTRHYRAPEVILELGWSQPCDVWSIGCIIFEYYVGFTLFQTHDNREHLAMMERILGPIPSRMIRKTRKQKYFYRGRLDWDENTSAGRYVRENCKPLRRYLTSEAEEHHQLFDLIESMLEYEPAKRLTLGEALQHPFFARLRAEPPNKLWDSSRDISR

[6] = target: Dual specificity tyrosine-phosphorylation-regulated kinase 1B (Homo sapiens, UniProt Q9Y463); experiment: Navigating the Kinome. Panel member name: DYRK1B
[7] = target: Macrophage-stimulating protein receptor (Homo sapiens, UniProt Q04912); experiment: Navigating the Kinome. Panel member name: MST1R
[8] = target: Tyrosine-protein kinase BTK (Homo sapiens, UniProt Q06187)
[9] = target: Insulin-like growth factor 1 receptor (Homo sapiens, UniProt P08069); experiment: Navigating the Kinome. Panel member name: IGF1R
[10] = target: High affinity nerve growth factor receptor (Homo sapiens, UniProt P04629);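 further: NTRK1 tested as one member of a kinome-wide profiling panel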
[11] = target: Glycogen synthase kinase-3 alpha (Homo sapiens, UniProt P49840);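 further: GSK3A result taken from a broad kinome-wide kinase panel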
[12] = target: Dual specificity tyrosine-phosphorylation-regulated kinase 1A (Homo sapiens, UniProt Q13627);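 further: measured against DYRK1A as one member of a broad kinome profiling panel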
[13] = target: Dual specificity mitogen-activated protein kinase kinase 1 (Homo sapiens, UniProt Q02750); experiment: Navigating the Kinome. Panel member name: MAP2K1
Chain of Dual specificity mitogen-activated protein kinase kinase 1 (Q02750 whole entry): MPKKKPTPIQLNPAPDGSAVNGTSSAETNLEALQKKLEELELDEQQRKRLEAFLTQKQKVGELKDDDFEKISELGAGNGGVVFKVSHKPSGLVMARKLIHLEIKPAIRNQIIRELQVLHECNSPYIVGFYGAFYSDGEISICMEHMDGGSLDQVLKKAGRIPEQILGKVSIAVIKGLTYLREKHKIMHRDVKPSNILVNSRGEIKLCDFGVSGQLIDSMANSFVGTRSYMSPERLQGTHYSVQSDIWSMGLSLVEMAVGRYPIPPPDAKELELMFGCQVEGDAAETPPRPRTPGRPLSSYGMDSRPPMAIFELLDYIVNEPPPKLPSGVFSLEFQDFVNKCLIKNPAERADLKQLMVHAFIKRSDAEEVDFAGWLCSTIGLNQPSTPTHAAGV

[14] = target: Mitogen-activated protein kinase 14 (Homo sapiens, UniProt Q16539);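 further: part of a kinome-wide panel, MAPK14 entry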
[15] = target: Casein kinase I isoform alpha (Homo sapiens, UniProt P48729)
Chain of Casein kinase I isoform alpha (P48729 whole entry, canonical isoform): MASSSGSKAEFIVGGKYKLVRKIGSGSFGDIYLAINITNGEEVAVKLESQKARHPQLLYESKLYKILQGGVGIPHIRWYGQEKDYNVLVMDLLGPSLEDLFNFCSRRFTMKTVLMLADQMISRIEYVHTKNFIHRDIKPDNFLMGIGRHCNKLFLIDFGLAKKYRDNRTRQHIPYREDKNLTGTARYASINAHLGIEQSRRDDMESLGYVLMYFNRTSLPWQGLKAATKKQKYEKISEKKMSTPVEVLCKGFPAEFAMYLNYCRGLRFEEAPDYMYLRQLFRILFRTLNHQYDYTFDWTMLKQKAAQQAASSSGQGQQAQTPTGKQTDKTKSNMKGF

[16] = target: Tyrosine-protein kinase JAK3 (Homo sapiens, UniProt P52333)
[17] = target: T1, Serine/threonine-protein kinase D3 (Homo sapiens, UniProt O94806);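 further: determined within a kinase panel screen, with PRKCN as the panel member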
T1 sequence (O94806 whole entry): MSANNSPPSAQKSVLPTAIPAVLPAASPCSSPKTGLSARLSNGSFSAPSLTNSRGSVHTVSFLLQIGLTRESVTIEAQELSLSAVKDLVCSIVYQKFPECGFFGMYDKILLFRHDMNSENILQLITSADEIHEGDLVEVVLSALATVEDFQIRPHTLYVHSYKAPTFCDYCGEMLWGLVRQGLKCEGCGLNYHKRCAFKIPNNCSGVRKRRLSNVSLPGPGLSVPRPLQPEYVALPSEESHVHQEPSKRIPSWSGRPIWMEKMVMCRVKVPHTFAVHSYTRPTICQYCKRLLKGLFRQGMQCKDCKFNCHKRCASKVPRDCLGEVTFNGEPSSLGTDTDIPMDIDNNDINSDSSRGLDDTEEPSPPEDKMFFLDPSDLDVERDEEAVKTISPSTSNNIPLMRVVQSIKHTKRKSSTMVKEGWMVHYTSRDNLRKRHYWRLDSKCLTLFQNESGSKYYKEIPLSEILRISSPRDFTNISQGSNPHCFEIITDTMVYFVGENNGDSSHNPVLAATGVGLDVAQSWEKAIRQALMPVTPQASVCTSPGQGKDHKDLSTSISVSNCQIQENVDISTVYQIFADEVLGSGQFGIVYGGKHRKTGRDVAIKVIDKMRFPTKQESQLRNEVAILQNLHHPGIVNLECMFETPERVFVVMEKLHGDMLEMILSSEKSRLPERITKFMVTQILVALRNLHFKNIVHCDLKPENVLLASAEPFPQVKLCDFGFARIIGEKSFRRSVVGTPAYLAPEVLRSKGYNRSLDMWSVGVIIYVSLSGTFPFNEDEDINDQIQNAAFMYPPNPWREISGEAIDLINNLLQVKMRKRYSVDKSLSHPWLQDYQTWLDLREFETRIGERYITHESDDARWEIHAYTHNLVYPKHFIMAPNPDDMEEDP

[18] = target: Dual specificity mitogen-activated protein kinase kinase 2 (Homo sapiens, UniProt P36507); experiment: Navigating the Kinome. Panel member name: MAP2K2
[19] = target: Serine/threonine-protein kinase TBK1 (Homo sapiens, UniProt Q9UHD2); experiment: Navigating the Kinome. Panel member name: TBK1
[20] = target: Macrophage colony-stimulating factor 1 receptor (Homo sapiens, UniProt P07333);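 further: value comes from the Navigating the Kinome screening panel, CSF1R member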
Chain of Macrophage colony-stimulating factor 1 receptor (P07333 whole entry): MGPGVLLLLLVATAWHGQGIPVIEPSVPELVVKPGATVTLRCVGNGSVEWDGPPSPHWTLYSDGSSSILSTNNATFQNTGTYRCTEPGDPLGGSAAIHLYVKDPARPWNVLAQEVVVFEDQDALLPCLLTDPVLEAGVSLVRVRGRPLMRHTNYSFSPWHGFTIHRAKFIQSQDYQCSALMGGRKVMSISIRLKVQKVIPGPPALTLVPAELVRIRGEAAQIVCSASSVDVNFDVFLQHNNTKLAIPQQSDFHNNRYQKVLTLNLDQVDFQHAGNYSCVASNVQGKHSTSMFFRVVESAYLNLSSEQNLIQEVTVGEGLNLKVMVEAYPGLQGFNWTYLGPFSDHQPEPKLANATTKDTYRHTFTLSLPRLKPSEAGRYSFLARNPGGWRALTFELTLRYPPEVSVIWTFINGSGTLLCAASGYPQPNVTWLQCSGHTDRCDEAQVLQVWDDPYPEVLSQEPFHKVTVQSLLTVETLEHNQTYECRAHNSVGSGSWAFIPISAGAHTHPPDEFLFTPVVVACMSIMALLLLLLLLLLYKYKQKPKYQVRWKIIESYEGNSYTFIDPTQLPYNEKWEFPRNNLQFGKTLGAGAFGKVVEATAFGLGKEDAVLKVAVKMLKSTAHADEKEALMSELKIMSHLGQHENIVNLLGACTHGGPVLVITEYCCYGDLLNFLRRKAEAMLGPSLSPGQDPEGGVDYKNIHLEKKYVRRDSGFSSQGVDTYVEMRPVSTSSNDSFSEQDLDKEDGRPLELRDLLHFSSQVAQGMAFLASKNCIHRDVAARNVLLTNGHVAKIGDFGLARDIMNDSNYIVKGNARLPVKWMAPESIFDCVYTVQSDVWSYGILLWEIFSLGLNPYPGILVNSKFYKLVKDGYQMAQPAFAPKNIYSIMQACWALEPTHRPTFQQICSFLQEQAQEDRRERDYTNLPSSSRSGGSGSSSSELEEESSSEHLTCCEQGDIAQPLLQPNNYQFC

[21] = target: Cyclin-dependent kinase 9 (Homo sapiens, UniProt P50750);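 further: value from the CDK9 entry of a kinome-spanning kinase panel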
Chain of Cyclin-dependent kinase 9 (P50750 whole entry): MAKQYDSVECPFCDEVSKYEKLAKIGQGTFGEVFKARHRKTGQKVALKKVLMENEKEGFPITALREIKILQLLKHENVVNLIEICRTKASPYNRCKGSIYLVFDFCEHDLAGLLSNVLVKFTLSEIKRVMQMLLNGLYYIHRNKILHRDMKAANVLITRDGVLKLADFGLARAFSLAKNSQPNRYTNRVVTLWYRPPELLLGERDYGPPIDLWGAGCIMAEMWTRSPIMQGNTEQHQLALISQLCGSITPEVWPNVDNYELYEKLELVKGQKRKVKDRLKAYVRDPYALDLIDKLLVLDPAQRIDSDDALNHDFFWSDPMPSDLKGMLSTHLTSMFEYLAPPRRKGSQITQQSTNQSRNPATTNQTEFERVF

[22] = target: Mitogen-activated protein kinase kinase kinase kinase 2 (Homo sapiens, UniProt Q12851);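 further: measured as one member of a kinome-wide kinase panel, with MAP4K2 as the panel entry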
[23] = target: Inhibitor of nuclear factor kappa-B kinase subunit epsilon (Homo sapiens, UniProt Q14164); experiment: Navigating the Kinome. Panel member name: IKBKE
[24] = target: Rho-associated protein kinase 1 (Homo sapiens, UniProt Q13464);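 further: measured within a broad kinome-wide panel profiling many kinases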
[25] = target: Protein kinase C theta type (Homo sapiens, UniProt Q04759); experiment: Navigating the Kinome. Panel member name: PRKCQ
[26] = target: Tyrosine-protein kinase JAK2 (Homo sapiens, UniProt O60674);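 further: JAK2 tested as one member of a kinase panel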
[27] = target: Platelet-derived growth factor receptor alpha (Homo sapiens, UniProt P16234); experiment: Navigating the Kinome. Panel member name: PDGFRA
[28] = target: Calcium/calmodulin-dependent protein kinase type II subunit alpha (Homo sapiens, UniProt Q9UQM7); experiment: Navigating the Kinome. Panel member name: CAMK2A
[29] = target: Tyrosine-protein kinase receptor TYRO3 (Homo sapiens, UniProt Q06418);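 further: TYRO3 value obtained as one member of a kinome-wide profiling panel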
[30] = target: cAMP-dependent protein kinase catalytic subunit PRKX (Homo sapiens, UniProt P51817)
[31] = target: Mitogen-activated protein kinase 9 (Homo sapiens, UniProt P45984);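 further: value from a kinome panel profiling assay, MAPK9 panel entry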
[32] = target: Cyclin-dependent kinase 7 (Homo sapiens, UniProt P50613);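 further: value comes from a kinome-wide kinase profiling panel in which CDK7 is one member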
[33] = target: Receptor-type tyrosine-protein kinase FLT3 (Homo sapiens, UniProt P36888);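 further: FLT3 was tested as one member of a kinome-wide kinase panel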
[34] = target: Leucine-rich repeat serine/threonine-protein kinase 2 (Homo sapiens, UniProt Q5S007);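 further: value from a broad kinome-wide panel profiling study in which LRRK2 was one of the kinases tested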
Chain of Leucine-rich repeat serine/threonine-protein kinase 2 (Q5S007 whole entry): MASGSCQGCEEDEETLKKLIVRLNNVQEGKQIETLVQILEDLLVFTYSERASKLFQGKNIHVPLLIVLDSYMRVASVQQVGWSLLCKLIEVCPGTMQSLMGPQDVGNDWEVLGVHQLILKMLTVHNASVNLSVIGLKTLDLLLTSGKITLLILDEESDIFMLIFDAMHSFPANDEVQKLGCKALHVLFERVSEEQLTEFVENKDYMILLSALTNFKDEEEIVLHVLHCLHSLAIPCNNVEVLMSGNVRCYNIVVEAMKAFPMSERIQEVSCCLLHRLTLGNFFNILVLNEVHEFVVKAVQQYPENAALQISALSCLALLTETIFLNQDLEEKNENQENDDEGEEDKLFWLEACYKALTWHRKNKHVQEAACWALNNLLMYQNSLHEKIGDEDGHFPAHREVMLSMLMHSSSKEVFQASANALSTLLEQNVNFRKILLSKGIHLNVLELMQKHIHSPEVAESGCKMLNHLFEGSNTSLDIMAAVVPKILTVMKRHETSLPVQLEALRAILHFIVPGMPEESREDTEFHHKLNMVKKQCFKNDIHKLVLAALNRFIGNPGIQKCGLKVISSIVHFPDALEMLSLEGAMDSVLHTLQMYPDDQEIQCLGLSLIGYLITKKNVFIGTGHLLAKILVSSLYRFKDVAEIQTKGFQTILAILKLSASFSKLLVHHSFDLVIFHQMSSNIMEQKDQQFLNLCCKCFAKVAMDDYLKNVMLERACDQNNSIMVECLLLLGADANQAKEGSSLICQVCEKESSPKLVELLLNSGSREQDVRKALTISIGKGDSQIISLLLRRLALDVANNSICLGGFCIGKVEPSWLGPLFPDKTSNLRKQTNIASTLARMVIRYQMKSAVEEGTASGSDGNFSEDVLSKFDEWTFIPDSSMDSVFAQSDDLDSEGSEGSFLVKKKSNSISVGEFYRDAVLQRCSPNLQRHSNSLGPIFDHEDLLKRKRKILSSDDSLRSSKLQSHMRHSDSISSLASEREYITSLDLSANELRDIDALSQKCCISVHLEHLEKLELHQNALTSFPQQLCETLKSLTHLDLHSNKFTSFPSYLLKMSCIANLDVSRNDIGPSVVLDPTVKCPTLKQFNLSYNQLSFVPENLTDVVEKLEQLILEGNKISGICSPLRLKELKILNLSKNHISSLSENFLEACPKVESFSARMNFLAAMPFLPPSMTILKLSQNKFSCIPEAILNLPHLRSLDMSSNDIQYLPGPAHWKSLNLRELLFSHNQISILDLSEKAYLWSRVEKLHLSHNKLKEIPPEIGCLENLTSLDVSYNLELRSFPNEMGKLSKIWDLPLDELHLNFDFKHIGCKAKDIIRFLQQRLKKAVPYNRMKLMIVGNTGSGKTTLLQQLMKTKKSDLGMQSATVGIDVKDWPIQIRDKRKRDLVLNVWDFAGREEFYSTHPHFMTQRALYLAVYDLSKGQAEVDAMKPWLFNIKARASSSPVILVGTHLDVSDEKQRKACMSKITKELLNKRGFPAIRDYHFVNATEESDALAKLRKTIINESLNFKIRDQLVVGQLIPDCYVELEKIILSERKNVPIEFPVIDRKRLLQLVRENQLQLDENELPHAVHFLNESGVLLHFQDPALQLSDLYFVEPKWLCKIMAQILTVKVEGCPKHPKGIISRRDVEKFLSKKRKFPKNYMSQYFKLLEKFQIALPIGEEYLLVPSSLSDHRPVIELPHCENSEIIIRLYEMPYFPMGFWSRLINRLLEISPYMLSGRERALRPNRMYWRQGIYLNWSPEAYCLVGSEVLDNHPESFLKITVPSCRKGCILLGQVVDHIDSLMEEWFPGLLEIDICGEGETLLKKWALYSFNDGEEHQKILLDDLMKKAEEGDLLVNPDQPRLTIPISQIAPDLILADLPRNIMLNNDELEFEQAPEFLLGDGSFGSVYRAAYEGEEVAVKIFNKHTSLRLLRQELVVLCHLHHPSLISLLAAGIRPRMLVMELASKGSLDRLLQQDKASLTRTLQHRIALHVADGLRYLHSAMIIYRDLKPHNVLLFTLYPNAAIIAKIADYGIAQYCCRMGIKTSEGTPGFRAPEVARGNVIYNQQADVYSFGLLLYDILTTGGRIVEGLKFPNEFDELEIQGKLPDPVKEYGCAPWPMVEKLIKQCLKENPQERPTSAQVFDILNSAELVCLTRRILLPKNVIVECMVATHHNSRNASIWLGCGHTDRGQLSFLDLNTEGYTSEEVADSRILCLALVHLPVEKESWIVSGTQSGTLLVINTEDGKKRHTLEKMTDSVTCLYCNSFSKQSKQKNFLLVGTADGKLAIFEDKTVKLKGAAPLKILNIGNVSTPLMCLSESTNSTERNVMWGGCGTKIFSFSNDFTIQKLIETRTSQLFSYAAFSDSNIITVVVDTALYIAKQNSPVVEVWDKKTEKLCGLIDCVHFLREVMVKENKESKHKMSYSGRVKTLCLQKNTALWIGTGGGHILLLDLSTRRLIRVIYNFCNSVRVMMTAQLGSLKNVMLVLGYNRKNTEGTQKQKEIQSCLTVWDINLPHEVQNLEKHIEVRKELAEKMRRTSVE

Row | Ki [1] | Ki [2] | Ki [3] | Ki [4] | Ki [5] | Ki [6] | Ki [7] | Ki [8] | Ki [9] | Ki [10] | Ki [11] | Ki [12] | Ki [13] | Ki [14] | Ki [15] | Ki [16] | Ki [17] | Ki [18] | Ki [19] | Ki [20] | Compound | other results
1 | > 3.98 µM (inactive) | > 2.51 µM (inactive) | > 3.98 µM (inactive) | > 2.51 µM (inactive) | > 3.98 µM (inactive) | > 2.51 µM (inactive) | > 3.98 µM (inactive) | > 6.31 µM (inactive) | > 2.51 µM (inactive) | > 3.16 µM (inactive) | 3.16 µM (active) | > 2 µM (inactive) | > 3.16 µM (inactive) | > 3.98 µM (inactive) | > 3.98 µM (inactive) | > 5.01 µM (inactive) | > 3.98 µM (inactive) | > 3.98 µM (inactive) | > 3.16 µM (inactive) | > 2.51 µM (inactive) | CCCOc1cccc(C(C)NC(=O)c2ccc(-c3ccncc3F)cc2)c1 (stereo not drawn) | Ki [21]: > 1.58 µM (inactive); Ki [22]: > 2.51 µM (inactive); Ki [23]: > 3.16 µM (inactive); Ki [24]: 0.000794 µM (active); Ki [25]: 2 µM (active); Ki [26]: > 2.51 µM (inactive); Ki [27]: > 2.51 µM (inactive); Ki [28]: > 7.94 µM (inactive); Ki [29]: > 3.16 µM (inactive); Ki [30]: 0.501 µM (active); Ki [31]: > 3.98 µM (inactive); Ki [32]: > 3.98 µM (inactive); Ki [33]: > 3.16 µM (inactive); Ki [34]: > 2.51 µM (inactive)
2 | > 3.98 µM (inactive) | > 2.51 µM (inactive) | > 3.98 µM (inactive) | > 2.51 µM (inactive) | > 3.98 µM (inactive) | > 2.51 µM (inactive) | 0.398 µM (active) | > 6.31 µM (inactive) | > 2.51 µM (inactive) | > 3.16 µM (inactive) | 2.51 µM (active) | > 2 µM (inactive) | > 3.16 µM (inactive) | > 3.98 µM (inactive) | > 3.98 µM (inactive) | > 5.01 µM (inactive) | > 3.98 µM (inactive) | > 3.98 µM (inactive) | > 3.16 µM (inactive) | > 2.51 µM (inactive) | COc1cccc(C(C)NC(=O)c2cnc(-c3ccncc3)nc2)c1 (stereo not drawn) | Ki [21]: > 1.58 µM (inactive); Ki [22]: > 2.51 µM (inactive); Ki [23]: > 3.16 µM (inactive); Ki [24]: 0.00398 µM (active); Ki [25]: 0.631 µM (active); Ki [26]: > 2.51 µM (inactive); Ki [27]: > 2.51 µM (inactive); Ki [28]: > 7.94 µM (inactive); Ki [29]: > 3.16 µM (inactive); Ki [30]: 1.26 µM (active); Ki [31]: > 3.98 µM (inactive); Ki [32]: > 3.98 µM (inactive); Ki [33]: > 3.16 µM (inactive); Ki [34]: > 2.51 µM (inactive)
